Assays:
Type in all cases: in vivo, rat
MMP-2 = assay: Immunohistochemistry protein expression in I/R myocardial tissue: MMP-2; settings: for MMP-2 protein expression, OD value: 5 days, ischemia 30 min, reperfusion 2 h
Experimental: (§1) 52 SD rats having a body weight of 220±20 g were randomly divided into model control group, salviannic acid injection group (in 1 mL/kg), and group of bornyl β-(3,4-dihydroxylphenyl)-α-hydroxylpropionate ester at a small, middle and large dose (ip 5, 15, 35 mg/kg). The rats of the normal group and the model control group were ip administered with equal-volume of physiologic saline. The rats of all groups were administered for consecutive 5 days. When the rats were administered for the last time, they were simultaneously anesthetized with 1.5% pentobarbital sodium (ip 45 mg/kg), then a catheter was inserted into the right carotid artery, and connected via a transducer to an eight-channeled physiological recorder. Tracheal cannula was performed, and the ventilation rate was maintained at 60 times/min. The chest was opened, a 6/0 suture was used to form a loop at a site 1˜2 mm from the root of the anterior descending coronary artery, and a plastic pipe was introduced through the loop, then the loop was tightened up. The change of electrocardiogram was observed. An increase or decrease of ST indicated the success of ligation. The color of the myocardial tissue below the ligation suture became darker. 30 minutes later, the plastic pipe was pulled out to allow coronary artery blood flowing again and cause hyperemia of local tissue during reperfusion. For the groups subjected to ischemia for 30 min and reperfusion for 30 min, the myocardial infarction areas were recorded before the test, after ischemia for 1 min and 30 min, and after reperfusion for 30 min; for the groups subjected to ischemia for 30 min and reperfusion for 2 h, cardiac tissue samples were taken and fixed using 10% formalin, embedded with paraffin, serially sliced into sections with a thickness of 4 μm, and separately subjected to immunohistochemistry tests; the rats of the sham operation group were subjected only to the introduction of suture but their coronary arteries were not ligated.
(§2) Standard immunohistochemistry ABC and SP methods were employed for staining. Bax: anti-rabbit polyclonal antibody (Santa CruzBio. Inc.) at a dilution of 1:200; […]: anti-rabbit polyclonal antibody (TBD Tianjin Biotechnological Center). At a dilution of […]; caspase-3: anti-rabbit polyclonal antibody (Normarkers Fromont, Calif.), at a dilution of 1:200; MMP-2: anti-murine monoclonal antibody (NormarkersFromont, Calif.) at a dilution of 1:200; PPARγ: anti-caprine polyclonal antibody (Santa Cruz Bio. Inc.), at a dilution of 1:500. The specific procedures were performed in accordance with the instructions of the ABC and SP kits, DAB was used for color development, and neutral resin was used for mounting. PBS was used instead of the first antibody as a negative control. Cells with positive expression of the test polypeptides were of brown-yellow color, with MMP-2 protein being present in acytoplasm, Bcl-2 expressed in nuclear membrane and cytoplasm, Bax mainly in cytoplasm and partially in nucleus, and caspase-3 mainly in nucleus and partially in cytoplasm. CMIAS image analysis system was used for random selection of fields of slices and automatic selection of sites for analysis, and statistic analysis was performed by using mean optical density values or integral optical density values of the obtained myocardial tissue slices.

[1] = tested on: rats with acute myocardial ischemia; assay: ST-T segment of ECG in rats with myocardial ischemia
Experimental: (§3) At 0.5 h after the rats of these groups were administered intragastrically, the standard II lead electrocardiogram (before modeling) was recorded, and the height of ST-T segment was measured. The rats of sham operation group were then subjected to coronary artery braid without ligation, and the rats of other groups were subjected to coronary artery ligation in accordance with the following method to establish cute myocardial ischemia models. The rats were subjected to etherization, fixed at supine position, and their normal electrocardiograms (before modeling) were recorded. The skin of left thorax was incised under aseptic conditions, the 4th intercostal muscles were isolated in blunt way, the heart was extruded by light pressure to the right thorax, the left anterior descending coronary artery was ligated at a position 2˜3 mm departing from the left coronary artery origin and between the pulmonary conus and the left auricle of heart, then the heart was sent back to thorax cavity immediately and sutured the incision. Penicillin was smeared topically for the prevention of infections. After operation, the electrocardiogram of postischemia was recorded immediately (at 0 min after modeling), and the height of ST-T segment was measured.

malondialdehyde (MDA) = assay: Serum MDA content in rats with myocardial ischemia; settings: for MDA: serum, 24 h after ligation
Experimental: as §3

[2] = tested on: lactate dehydrogenase (LDH); assay: Serum LDH activity in rats with myocardial ischemia; settings: for LDH: serum, 24 h after ligation
Experimental: as §3

caspase-3 = assay: Immunohistochemistry protein expression in I/R myocardial tissue: caspase-3; settings: for Caspase-3 protein expression, OD value: 5 days, ischemia 30 min, reperfusion 2 h
Experimental: as §1, §2

[3] = tested on: rats with acute myocardial ischemia; assay: Area of myocardial infarction in rats with acute myocardial ischemia (coronary artery ligation); settings: 24 h after coronary artery ligation
Experimental: as §3

Bax = assay: Immunohistochemistry protein expression in I/R myocardial tissue: Bax; settings: for Bax protein expression, OD value: 5 days, ischemia 30 min, reperfusion 2 h
Experimental: as §1, §2

[4] = 10 mg/kg intragastric, 0 min after modeling
[5] = 10 mg/kg intragastric, 24 h after modeling
[6] = 20 mg/kg intragastric, 0 min after modeling
[7] = 20 mg/kg intragastric, 24 h after modeling
[8] = 40 mg/kg intragastric, 0 min after modeling
[9] = 40 mg/kg intragastric, 24 h after modeling

CC1(C)C2CCC1(C)C(OC(=O)C(O)Cc1ccc(O)c(O)c1)C2 (stereo not drawn) [bornyl salvianate ester, bornyl β-(3,4-dihydroxylphenyl)-α-hydroxylpropionate ester]
MMP-2 protein expression, OD value (MMP-2; 5 mg/kg ip): 0.14 ± 0.05
MMP-2 protein expression, OD value (MMP-2; 15 mg/kg ip): 0.14 ± 0.03
MMP-2 protein expression, OD value (MMP-2; 35 mg/kg ip): 0.11 ± 0.03
MMP-2 protein (in words) (MMP-2; myocardial I/R): decrease of MMP-2 protein
Elevation of ST-T segment [1, 4]: 0.24 ± 0.24 mV
Elevation of ST-T segment, Change rate [1, 4]: 95.00 ± 78.34%
Elevation of ST-T segment [1, 5]: 0.17 ± 0.09 mV
Elevation of ST-T segment, Change rate [1, 5]: 49.00 ± 36.27%
Elevation of ST-T segment ([1]; 10 mg/kg intragastric, before modeling): 0.21 ± 0.06 mV
Elevation of ST-T segment [1, 6]: 0.13 ± 0.16 mV
Elevation of ST-T segment, Change rate [1, 6]: 91.61 ± 116.85%
Elevation of ST-T segment [1, 7]: 0.11 ± 0.10 mV
Elevation of ST-T segment, Change rate [1, 7]: 60.77 ± 39.69%
Elevation of ST-T segment ([1]; 20 mg/kg intragastric, before modeling): 0.17 ± 0.07 mV
Elevation of ST-T segment [1, 8]: 0.36 ± 0.17 mV
Elevation of ST-T segment, Change rate [1, 8]: 103.87 ± 148.26%
Elevation of ST-T segment [1, 9]: 0.18 ± 0.07 mV
Elevation of ST-T segment, Change rate [1, 9]: 29.01 ± 18.99 %
Elevation of ST-T segment ([1]; 40 mg/kg intragastric, before modeling): 0.21 ± 0.06 mV
MDA (malondialdehyde (MDA); 10 mg/kg intragastric): 21.69 ± 27.94 nmol/mL
MDA (malondialdehyde (MDA); 20 mg/kg intragastric): 10.60 ± 11.156 nmol/mL
MDA (malondialdehyde (MDA); 40 mg/kg intragastric): 9.43 ± 6.57 nmol/mL
serum MDA content (in words) (malondialdehyde (MDA); middle and large dose groups, no significant difference from model control): decrease tendency
LDH ([2]; 10 mg/kg intragastric): 1663.7 ± 374.43 U/L
LDH ([2]; 20 mg/kg intragastric): 2022.7 ± 202.63 U/L
LDH ([2]; 40 mg/kg intragastric): 1712.5 ± 209.1 U/L
activity of lactate dehydrogenase (LDH) (in words) ([2]; all dose groups, 24 h later): decreased
Caspase-3 protein expression, OD value (caspase-3; 5 mg/kg ip): 0.35 ± 0.14
Caspase-3 protein expression, OD value (caspase-3; 15 mg/kg ip): 0.32 ± 0.08
Caspase-3 protein expression, OD value (caspase-3; 35 mg/kg ip): 0.20 ± 0.07
expression of caspase-3 protein (in words) (caspase-3; myocardial cells I/R): reduce the expression of Bax and caspase-3 proteins
Infarct region weight ([3]; 10 mg/kg intragastric): 0.20 ± 0.05 g
Non-infarct region weight ([3]; 10 mg/kg intragastric): 0.47 ± 0.07 g
Percentage (infarct cardiac muscles of whole ventricle, by weight) ([3]; 10 mg/kg intragastric): 30.09 ± 5.69%
Ventricle weight ([3]; 10 mg/kg intragastric): 0.68 ± 0.09 g
Infarct region weight ([3]; 20 mg/kg intragastric): 0.18 ± 0.05 g
Non-infarct region weight ([3]; 20 mg/kg intragastric): 0.49 ± 0.09 g
Percentage (infarct cardiac muscles of whole ventricle, by weight) ([3]; 20 mg/kg intragastric): 25.73 ± 6.35 %
Ventricle weight ([3]; 20 mg/kg intragastric): 0.68 ± 0.08 g
Infarct region weight ([3]; 40 mg/kg intragastric): 0.18 ± 0.04 g
Non-infarct region weight ([3]; 40 mg/kg intragastric): 0.45 ± 0.06 g
Percentage (infarct cardiac muscles of whole ventricle, by weight) ([3]; 40 mg/kg intragastric): 28.95 ± 5.57 %
Ventricle weight ([3]; 40 mg/kg intragastric): 0.63 ± 0.07 g
Bax protein expression, OD value (Bax; 5 mg/kg ip): 0.12 ± 0.03
Bax protein expression, OD value (Bax; 15 mg/kg ip): 0.09 ± 0.05
Bax protein expression, OD value (Bax; 35 mg/kg ip): 0.07 ± 0.03
expression of Bax protein (in words) (Bax; myocardial cells I/R): reduce the expression of Bax and caspase-3 proteins
